Laboratory results from patent publication US20060111305A1, “Metabolites of certain [1,4]diazepino[6,7,1-ij]quinoline derivatives and methods of preparation and use thereof” (Wyeth, priority 2004, published 2006).
Where two headings read alike, the source gives them in different places.

Key:
[1] = Rat urinary excretion and metabolite profiles after single oral 5 mg/kg [14C]DCDQ; format: in vivo, Sprague-Dawley rats; conditions: oral 5 mg/kg, mean n = 3
Description: At sacrifice, blood samples were collected by cardiac puncture into tubes containing EDTA as the anticoagulant and placing them on ice. Aliquots of 50 μL were removed for combustion and determination of radioactivity content. Plasma was immediately obtained from the remaining blood by centrifugation at 4° C. Brains were excised after perfusion with 50 mL of chilled sterile saline. Urine samples were collected on dry ice at intervals of 0-8 and 8-24 hour post-dosing. Feces were collected at intervals of 0-8 and 8-24 hr post-dosing at room temperature and were homogenized as described previously. The biological specimens and aliquots of the dosing solution at pre- and post-dose were stored at approximately −70° C. until analyzed.
Plasma (20 μL) and urine (50 μL) aliquots were analyzed for radioactivity concentrations. Radioactivity determinations of dose, plasma and urine were made with a Tri-Carb Model 3100 TR/LL liquid scintillation counter (LSC) (Perkin Elmer) using 10 mL of Ultima Gold as the scintillation fluid.
Urine was analyzed for radioactivity concentration as and analyzed for metabolite profiles by direct injection onto the HPLC column. LC/MS analyses for metabolite identification were also carried out with urine samples.
(§1) A Waters model 2690 HPLC system (Waters Corp., Milford, Mass.) with a built-in autosampler was used for analysis. Separations were accomplished on a Phenomenex Luna C18(2) column (150×2.0 mm, 5 μm) (Phenomenex, Torrance, Calif.). The sample chamber of the autosampler was maintained at 4° C., while the column was at ambient temperature of about 20° C. A variable wavelength UV detector set to monitor 250 nm and a Flo-One β Model A525 radioactivity detector described above were used for data acquisition. The HPLC mobile phase consisted of 10 mM ammonium acetate, pH 4.5 (A) and methanol (B), and was delivered at 0.2 mL/min. Chromatographic condition A was used for dose analysis, while condition B was used for analysis of urine and plasma, brain and fecal extracts.

[2] = Metabolites of DCDQ identified in dogs by LC/MS analysis (Table 26); format: in vivo, beagle dogs; conditions: P = plasma, U = urine, B = brain, F = feces
Excerpt: An Agilent Model 1100 HPLC system (Agilent Technologies, Palo Alto, Calif.) including an autosampler and diode array UV detector was used for LC/MS analysis. The UV detector was set to monitor 200 to 400 nm. For selected LC/MS analysis, radiochromatograms were acquired using a β-Ram model 3 radioactivity flow detector (IN/US Systems Inc., Tampa, Fla.) equipped with a solid scintillant flow cell. LC conditions were the same as the condition B described above.
The mass spectrometer used for metabolite characterization was a Micromass Q-TOF-2 quadrupole time-of-flight hybrid mass spectrometer (Waters). The mass spectrometer was equipped with an electrospray ionization (ESI) interface and operated in the positive ionization mode. Collision energy settings of 5 and 30 eV were used for full MS and MS/MS scans, respectively. Settings for the mass spectrometer are listed below.

[3] = Dog plasma metabolite profiles after single 15 mg/kg oral capsule of [14C]DCDQ; format: in vivo, beagle dogs; conditions: for concentration at 2 h / concentration at 4 h / concentration at 24 h / concentration at 8 h / concentration at 48 h: male, beagle, dog, plasma, oral, 15 mg/kg, read-out: Estimated plasma concentration in dogs
Description: (§2) For plasma profiles, a TopCount NXT radiometric microplate reader (Perkin Elmer) was used to analyze the radioactivity in collected HPLC fractions. The limit of detection by TopCount was about 1 ng equivalent/mL. A Flo-One β Model A525 radioactivity detector (Perkin Elmer) with a 250 μL LQTR flow cell was used to acquire data for urine and fecal samples. The flow rate of Ultima Flow M scintillation fluid was 1 mL/min, providing a mixing ratio of scintillation cocktail to mobile phase of 5:1. The limits of detection by Flo-One detector were about 200 ng equivalents/mL for urine and 12 ng equivalents/g for feces.
Plasma samples were analyzed for metabolite profiles by HPLC. Aliquots of plasma were mixed with two volumes of cold methanol containing 0.1% trifluoroacetic acid (TFA), placed on ice for about 2 minutes and then centrifuged. The supernatant fluid was transferred to a clean tube and evaporated at 22° C. under nitrogen in a Zymark TurboVap LV (Caliper Life Sciences, Hopkinton, Mass.) to a volume of about 0.3 mL. The residue was centrifuged, the supernatant volume measured and extraction efficiency determined by analysis of duplicate 20 μL aliquots for radioactivity. A 200 μL aliquot of the supernatant was injected onto the HPLC column and the effluent was collected at 20 second intervals into 96-well Lumaplates (Perkin Elmer). The plates were dried overnight in an oven at 40° C. and analyzed by a TopCount. Plasma extracts were also analyzed by LC/MS.
as §1, with “detector” for “detector described above”, “acetonitrile” for “methanol”

[4] = Dog urinary excretion and metabolite profiles after oral capsule of [14C]DCDQ; format: in vivo, beagle dogs
Description: Blood samples were collected from the jugular vein at 2, 4, 8, 24 and 48 hour after dose administration into tubes containing potassium EDTA as the anticoagulant and then placed on ice. Aliquots of 50 μL were removed for combustion and determination of radioactivity content. Plasma was immediately obtained from the remaining blood by centrifugation at 4° C. Urine samples were collected into tubes on dry ice at intervals of 0-8, 8-24 and 24-48 hour post-dose. Fecal samples were collected at intervals of 0-8, 8-24 and 24-48 hour post-dose at room temperature, and were homogenized. The biological specimens were stored at approximately −70° C. until analysis.
as §2
Urine was analyzed for radioactivity concentration and analyzed by HPLC with radioactivity flow detection for metabolite profiles by direct injection to the HPLC column. LC/MS analyses for metabolite identification were also carried out with urine samples.
as §1, with “detector” for “detector described above”, “acetonitrile” for “methanol”

OC1[C@@H]2CCC[C@@H]2c2cccc3c2N1CCNC3 (stereo partly drawn) [Metabolite M2, hydroxy DCDQ]
Chromatographic distribution of radioactivity in male rat urine ([1]; 0-8 hr): 9.51%
Percentage of dose for urinary metabolites in rats ([1]; 0-8 hr): 3.16%
Percentage of dose for urinary metabolites in rats ([1]; 0-24 hr): 5.09%
Chromatographic distribution of radioactivity in male rat urine ([1]; 8-24 hr): 5.83%
Percentage of dose for urinary metabolites in rats ([1]; 8-24 hr): 1.94%
Matrix [2]: P, U, F
Estimated plasma concentration in dogs ([3]; 2 hr, dog 1): BQL^b
Chromatographic distribution of radioactivity in dog plasma ([3]; 2 hr, dog 2): 8.0%
Chromatographic distribution of radioactivity in dog plasma ([3]; 4 hr, dog 1): 6.6%
Chromatographic distribution of radioactivity in dog plasma ([3]; 4 hr, dog 2): 12%
Estimated plasma concentration in dogs ([3]; 8 hr, dog 1): BQL
Estimated plasma concentration in dogs ([3]; 8 hr, dog 2): BQL
Estimated plasma concentration in dogs ([3]; 8 hr, dog 3): BQL
Estimated plasma concentration in dogs ([3]; 24 hr, dog 1): BQL
Chromatographic distribution of radioactivity in dog plasma ([3]; 24 hr, dog 2): 5.0%
Chromatographic distribution of radioactivity in dog plasma ([3]; 24 hr, dog 3): 7.0%
Estimated plasma concentration in dogs ([3]; 48 hr, dog 1): BQL
Estimated plasma concentration in dogs ([3]; 48 hr, dog 2): BQL
Estimated plasma concentration in dogs ([3]; 48 hr, dog 3): BQL
concentration at 2 h ([3]; 2 hr, dog 2): 99.5 ng/mL
concentration at 4 h ([3]; 4 hr, dog 1): 33.1 ng/mL
concentration at 4 h ([3]; 4 hr, dog 2): 192 ng/mL
concentration at 24 h ([3]; 24 hr, dog 2): 55.3 ng/mL
concentration at 24 h ([3]; 24 hr, dog 3): 135 ng/mL
Chromatographic distribution of radioactivity in dog urine ([4]; 0-8 hr, dog no. not printed (dog 1 by footnote a)): 10%
Chromatographic distribution of radioactivity in dog urine ([4]; 8-24 hr, Mean): 24%
Chromatographic distribution of radioactivity in dog urine ([4]; 8-24 hr, dog 1): 21%
Chromatographic distribution of radioactivity in dog urine ([4]; 8-24 hr, dog 2): 26%
Chromatographic distribution of radioactivity in dog urine ([4]; 8-24 hr, dog 3): 26%
Chromatographic distribution of radioactivity in dog urine ([4]; 24-48 hr, Mean): 22%
Chromatographic distribution of radioactivity in dog urine ([4]; 24-48 hr, dog 1): 25%
Chromatographic distribution of radioactivity in dog urine ([4]; 24-48 hr, dog 2): 18%
Chromatographic distribution of radioactivity in dog urine ([4]; 24-48 hr, dog 3): 22%
Chromatographic distribution of radioactivity in dog urine ([4]; 24-48 hr, dog 4): 21%

OC1CN2C[C@@H]3CCC[C@@H]3c3cccc(c32)CN1 (stereo partly drawn) [Metabolite M1, hydroxy DCDQ]
Chromatographic distribution of radioactivity in male rat urine ([1]; 0-8 hr): 26.9%
Percentage of dose for urinary metabolites in rats ([1]; 0-8 hr): 8.67%
Percentage of dose for urinary metabolites in rats ([1]; 0-24 hr): 16.4%
Chromatographic distribution of radioactivity in male rat urine ([1]; 8-24 hr): 22.5%
Percentage of dose for urinary metabolites in rats ([1]; 8-24 hr): 7.74%
Matrix [2]: P, U
Chromatographic distribution of radioactivity in dog plasma ([3]; 2 hr, dog 1): 8.4%
Chromatographic distribution of radioactivity in dog plasma ([3]; 2 hr, dog 2): 2.6%
Chromatographic distribution of radioactivity in dog plasma ([3]; 4 hr, dog 1): 8.0%
Chromatographic distribution of radioactivity in dog plasma ([3]; 4 hr, dog 2): 4.9%
Chromatographic distribution of radioactivity in dog plasma ([3]; 8 hr, dog 1): 8.0%
Chromatographic distribution of radioactivity in dog plasma ([3]; 8 hr, dog 2): 4.7%
Chromatographic distribution of radioactivity in dog plasma ([3]; 8 hr, dog 3): 9.7%
Chromatographic distribution of radioactivity in dog plasma ([3]; 24 hr, dog 1): 6.8%
Chromatographic distribution of radioactivity in dog plasma ([3]; 24 hr, dog 2): 2.1%
Chromatographic distribution of radioactivity in dog plasma ([3]; 24 hr, dog 3): 6.4%
Chromatographic distribution of radioactivity in dog plasma ([3]; 48 hr, dog 1): 12%
Chromatographic distribution of radioactivity in dog plasma ([3]; 48 hr, dog 2): 6.7%
Estimated plasma concentration in dogs ([3]; 48 hr, dog 3): BQL
concentration at 2 h ([3]; 2 hr, dog 1): 30.1 ng/mL
concentration at 2 h ([3]; 2 hr, dog 2): 32.9 ng/mL
concentration at 4 h ([3]; 4 hr, dog 1): 40 ng/mL
concentration at 4 h ([3]; 4 hr, dog 2): 80.9 ng/mL
concentration at 8 h ([3]; 8 hr, dog 1): 43.3 ng/mL
concentration at 8 h ([3]; 8 hr, dog 2): 61.9 ng/mL
concentration at 8 h ([3]; 8 hr, dog 3): 24.8 ng/mL
concentration at 24 h ([3]; 24 hr, dog 1): 104 ng/mL
concentration at 24 h ([3]; 24 hr, dog 2): 23 ng/mL
concentration at 24 h ([3]; 24 hr, dog 3): 125 ng/mL
concentration at 48 h ([3]; 48 hr, dog 1): 58 ng/mL
concentration at 48 h ([3]; 48 hr, dog 2): 44.7 ng/mL
Chromatographic distribution of radioactivity in dog urine ([4]; 8-24 hr, Mean): 6.6%
Chromatographic distribution of radioactivity in dog urine ([4]; 8-24 hr, dog 1): 8.3%
Chromatographic distribution of radioactivity in dog urine ([4]; 8-24 hr, dog 2): 4.7%
Chromatographic distribution of radioactivity in dog urine ([4]; 8-24 hr, dog 3): 6.7%
Chromatographic distribution of radioactivity in dog urine ([4]; 24-48 hr, Mean): 5.7%
Chromatographic distribution of radioactivity in dog urine ([4]; 24-48 hr, dog 1): 4.4%
Chromatographic distribution of radioactivity in dog urine ([4]; 24-48 hr, dog 2): 7.6%
Chromatographic distribution of radioactivity in dog urine ([4]; 24-48 hr, dog 3): 7.6%
Chromatographic distribution of radioactivity in dog urine ([4]; 24-48 hr, dog 4): 3.2%

O=C1CC[C@@H]2c3cccc4c3N(CCNC4)C[C@H]12 [Metabolite M7, 17-keto DCDQ]
Chromatographic distribution of radioactivity in male rat urine ([1]; 0-8 hr): 9.68%
Percentage of dose for urinary metabolites in rats ([1]; 0-8 hr): 3.16%
Percentage of dose for urinary metabolites in rats ([1]; 0-24 hr): 6.60%
Chromatographic distribution of radioactivity in male rat urine ([1]; 8-24 hr): 10.1%
Percentage of dose for urinary metabolites in rats ([1]; 8-24 hr): 3.44%
Matrix [2]: P, U
Estimated plasma concentration in dogs ([3]; 2 hr, dog 1): BQL
Estimated plasma concentration in dogs ([3]; 2 hr, dog 2): BQL
Chromatographic distribution of radioactivity in dog plasma ([3]; 4 hr, dog 1): 6.9%
Chromatographic distribution of radioactivity in dog plasma ([3]; 4 hr, dog 2): 7.8%
Estimated plasma concentration in dogs ([3]; 8 hr, dog 1): BQL
Estimated plasma concentration in dogs ([3]; 8 hr, dog 2): BQL
Estimated plasma concentration in dogs ([3]; 8 hr, dog 3): BQL
Chromatographic distribution of radioactivity in dog plasma ([3]; 24 hr, dog 1): 13%
Chromatographic distribution of radioactivity in dog plasma ([3]; 24 hr, dog 2): 6.7%
Estimated plasma concentration in dogs ([3]; 24 hr, dog 3): BQL
Estimated plasma concentration in dogs ([3]; 48 hr, dog 1): BQL
Estimated plasma concentration in dogs ([3]; 48 hr, dog 2): BQL
Estimated plasma concentration in dogs ([3]; 48 hr, dog 3): BQL
concentration at 4 h ([3]; 4 hr, dog 1): 34.5 ng/mL
concentration at 4 h ([3]; 4 hr, dog 2): 127 ng/mL
concentration at 24 h ([3]; 24 hr, dog 1): 202 ng/mL
concentration at 24 h ([3]; 24 hr, dog 2): 73.6 ng/mL
Chromatographic distribution of radioactivity in dog urine ([4]; 24-48 hr, Mean): 5.9%
Chromatographic distribution of radioactivity in dog urine ([4]; 24-48 hr, dog 1): 5.0%
Chromatographic distribution of radioactivity in dog urine ([4]; 24-48 hr, dog 2): 6.2%
Chromatographic distribution of radioactivity in dog urine ([4]; 24-48 hr, dog 3): 9.2%
Chromatographic distribution of radioactivity in dog urine ([4]; 24-48 hr, dog 4): 3.4%
